Assay results reported in patent EP4722213A1, “NITROGEN-CONTAINING FUNCTIONAL GROUP-SUBSTITUTED PYRIDAZINOPYRIDONE DERIVATIVE AND USE THEREOF” (Sichuan Huiyu Pharmaceutical Co., Ltd., priority 2023, dated 2024).

How the values were obtained:
[1] = Rat liver microsomal metabolic stability; assay type: in vitro ADME; details: rat liver microsomes; for half-life at 1 µM: NADPH, 37°C; for CLint scaled at 1 µM: calculated from T1/2, fu defaulted to 1, read-out: CL(liver)
Text: Metabolic stability affects the clearance rate, half-life, and oral bioavailability of compounds in the body, and is one of the most important ADME drug-like properties of compounds. Hepatocyte microsomal stability assay is a commonly used method for studying metabolic stability. In the present disclosure, rat liver microsomes are used to determine and investigate the metabolic stability of compounds.
Preparation of compound stock solution: an appropriate amount of the test compound and testosterone was taken, and a 1 mM stock solution was prepared with DMSO, which was stored in a refrigerator at 4°C.
Preparation of compound working solution: The 1 mM compound stock solution was taken respectively, and then diluted to 100 µM with acetonitrile-water (v:v = 1:1) to obtain the working solution.
Preparation of NADPH working solution: an appropriate amount of NADPH was weighed and dissolved in 16 mM MgCl2 to prepare a NADPH working solution with a concentration of 4.0 mM.
Preparation of rat liver microsome working solution: an appropriate amount of rat liver microsomes was taken and diluted with PBS to obtain a liver microsome working solution with a concentration of 1 mg/mL.
In the incubation system, 48 µL of PBS, 100 µL of rat liver microsome working solution, and 2 µL of the test compound working solution were sequentially added and mixed well. After pre-incubation at 37°C for 5 min, 50 µL of NADPH was added to initiate the reaction. After incubation for the corresponding time points, an appropriate amount of ice-cold acetonitrile containing an internal standard was added to terminate the reaction. The mixture was vortexed to mix well, centrifuged, and the supernatant was collected. The supernatant was injected into LC-MS/MS for detection of the residual metabolic amount of the compound.
Softwares of Excel, etc. were used for data processing according to the following formula. Ct = C0 •e^(−ke •t) [formula] when Ct = (1)/(2)C0 [formula] , T1/2 = (Ln2)/(ke) = (0.693)/(ke) [formula] CLint(mic) = (0.693)/(In vitro T1/2)•(1)/(mg/mL microsomal protein in reaction system) [formula] CLint(liver) = CLint(mic) •(mg microsomes)/(g liver)•(g liver)/(kg body weight) [formula] CL(liver) = (CLint(liver)×fu×Qh)/(CLint(liver)×fu+Qh) [formula] fu (unbound fraction in blood) was defaulted to be 1.

SOS1 = target: T1, SOS1 (Homo sapiens, UniProt Q07889); experiment: biochemical
T1 sequence (Q07889 1-1333): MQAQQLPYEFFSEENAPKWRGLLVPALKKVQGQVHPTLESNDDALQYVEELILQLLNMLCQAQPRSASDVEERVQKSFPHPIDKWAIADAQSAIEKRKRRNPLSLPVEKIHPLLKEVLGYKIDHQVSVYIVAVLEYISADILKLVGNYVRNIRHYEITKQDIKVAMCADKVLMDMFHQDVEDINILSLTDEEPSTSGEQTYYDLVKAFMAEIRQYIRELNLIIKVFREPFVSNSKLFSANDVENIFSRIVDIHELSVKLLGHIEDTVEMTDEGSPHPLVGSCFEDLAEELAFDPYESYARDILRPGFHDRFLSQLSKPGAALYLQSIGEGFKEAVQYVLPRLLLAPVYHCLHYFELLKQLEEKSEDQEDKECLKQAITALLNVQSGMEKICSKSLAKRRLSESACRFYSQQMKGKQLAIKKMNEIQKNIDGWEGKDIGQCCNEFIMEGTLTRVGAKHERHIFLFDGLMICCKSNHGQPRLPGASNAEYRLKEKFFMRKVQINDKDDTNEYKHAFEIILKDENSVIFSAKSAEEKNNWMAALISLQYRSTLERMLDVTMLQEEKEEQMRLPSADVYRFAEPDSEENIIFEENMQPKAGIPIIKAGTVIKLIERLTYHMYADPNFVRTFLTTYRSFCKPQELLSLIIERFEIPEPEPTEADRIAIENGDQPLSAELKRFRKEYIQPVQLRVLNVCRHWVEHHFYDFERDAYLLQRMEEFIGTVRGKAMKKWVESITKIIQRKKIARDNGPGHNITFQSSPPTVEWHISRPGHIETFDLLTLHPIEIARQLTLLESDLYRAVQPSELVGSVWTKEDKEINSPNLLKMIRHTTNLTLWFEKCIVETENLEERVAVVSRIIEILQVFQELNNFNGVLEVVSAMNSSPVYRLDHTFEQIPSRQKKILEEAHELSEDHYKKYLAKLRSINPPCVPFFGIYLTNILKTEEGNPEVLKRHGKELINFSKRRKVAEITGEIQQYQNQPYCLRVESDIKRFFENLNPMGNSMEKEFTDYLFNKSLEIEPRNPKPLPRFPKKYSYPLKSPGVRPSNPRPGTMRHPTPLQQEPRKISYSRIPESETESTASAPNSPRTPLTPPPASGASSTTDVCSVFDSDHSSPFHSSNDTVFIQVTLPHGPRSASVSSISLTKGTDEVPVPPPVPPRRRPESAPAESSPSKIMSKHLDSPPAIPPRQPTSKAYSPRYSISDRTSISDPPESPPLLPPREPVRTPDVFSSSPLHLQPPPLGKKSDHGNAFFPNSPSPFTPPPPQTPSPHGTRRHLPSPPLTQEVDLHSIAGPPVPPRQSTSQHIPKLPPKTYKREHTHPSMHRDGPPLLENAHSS

[2] = system: NCI-H358 non-small cell lung cancer cells; experiment: Inhibition of NCI-H358 cell proliferation (CellTiter-Glo 3D, 7 days); assay type: cell-based; details: Homo sapiens, NCI-H358, 168 h, 3D microspheres, read-out: Inhibitory activity against NCI-H358 cell proliferation (IC50)
Procedure: The number of viable cells were detected by CellTiter-Glo 3D® reagent, thereby evaluating the inhibitory effect of compounds on cell proliferation. NCI-H358 non-small cell lung cancer cells (Nanjing cobioer) in the exponential growth phase were digested with trypsin-EDTA, and seeded into 96-well ultra-low attachment microplates at 100 µL per well with a density of 2000 cells/well. The cells were cultured overnight at 37°C with 5% CO2 to form microspheres. The test compounds were serially diluted 5-fold with DMSO to obtain 8 concentration gradient dilutions, then diluted with RPMI-1640 (10% FBS) cell culture medium respectively to obtain compound working solutions (2×). 100 µL per well was added to the cell supernatant, and the culture was continued for 7 days under the conditions of 37°C and 5% CO2. The well plate was removed, and 100 µL of CellTiter-Glo 3D® reagent was added. After lysis at room temperature for 10-30 minutes, 70 µL of the lysate was aspirated and transferred to a white opaque 384-well plate.
The inhibition rate was calculated by the following formula: [formula] Note: The negative control refers to the group without inhibitor, and the blank refers to the group without cells.
The inhibitory activities of some Example compounds and comparative compounds against NCI-H358 cell proliferation are shown in Table 2. Table 2. Inhibitory activity of some Example compounds against NCI-H358 cell proliferation

| Structure (SMILES) | half-life at 1 µM [1] | CLint scaled at 1 µM [1] | IC50 (SOS1) | IC50 [2] |
| --- | --- | --- | --- | --- |
| C[C@@H](Nc1nnc(N2CCN(C)CC2)c2cc(=O)n(C3CC(F)(F)C3)cc12)c1cccc(C(F)F)c1F [Example 90, (R)-6-(3,3-difluorocyclobutyl)-4-((1-(3-(difluoromethyl)-2-fluorophenyl)ethyl)amino)-1-(4-methylpiperazin-1-yl)pyrido[3,4-d]pyridazin-7(6H)-one] | 2.32 h | 13.5 mL/min/kg | 4.2 nM | 49.8 nM |
| Cc1c([C@@H](C)Nc2nnc(N3CCN(C(C)C)CC3)c3cc(=O)n(C4(C)CC4)cc23)cccc1C(F)(F)F [Example 91, (R)-1-(4-isopropylpiperazin-1-yl)-4-((1-(2-methyl-3-(trifluoromethyl)phenyl)ethyl)amino)-6-(1-methylcyclopropyl) pyrido[3,4-d]pyridazin-7(6H)-one] | 2.52 h | 12.7 mL/min/kg | 5.7 nM | 38.5 nM |
| CCNc1nnc(N[C@H](C)c2cccc(C(F)(F)F)c2C)c2cn(C3(C)CC3)c(=O)cc12 [Example 97, (R)-1-(ethylamino)-4-((1-(2-methyl-3-(trifluoromethyl)phenyl)ethyl)amino)-6-(1-methylcyclopropyl) pyrido[3,4-d]pyridazin-7(6H)-one] | 1.75 h | 16.7 mL/min/kg | 5.1 nM | 36.8 nM |
| CCN1CCN(c2nnc(N[C@H](C)c3cccc(C(F)(F)F)c3C)c3cn(C4(C)CC4)c(=O)cc23)CC1 [Example 104, (R)-1-(4-ethylpiperazin-1-yl)-4-((1-(2-methyl-3-(trifluoromethyl)phenyl)ethyl)amino)-6-(1-methylcyclopropyl) pyrido[3,4-d]pyridazin-7(6H)-one] | 2.6 h | 12.4 mL/min/kg | 7.5 nM | 29.7 nM |
| C[C@@H](Nc1nnc(N2CCN(C(C)(C)C)CC2)c2cc(=O)n(C3CC(F)(F)C3)cc12)c1cccc(C(F)F)c1F [Example 108, (R)-6-(3,3-difluorocyclobutyl)-4-((1-(3-(difluoromethyl)-2-fluorophenyl)ethyl)amino)-1-(4-(tert-butyl)piperazin-1-yl)pyrido[3,4-d]pyridazin-7(6H)-one] | 2.23 h | 13.9 mL/min/kg | 5.5 nM | 27 nM |
| CC(C)N1CCN(c2nnc(N[C@H](C)c3cccc(C(F)F)c3F)c3cn(C4CCC4)c(=O)cc23)CC1 [Example 113, (R)-6-cyclobutyl-4-((1-(3-(difluoromethyl)-2-fluorophenyl)ethyl)amino)-1-(4-isopropylpiperazin-1-yl)pyrido[3,4-d]pyridazin-7(6H)-one] | 2.25 h | 13.9 mL/min/kg | 4.5 nM | 24.2 nM |
| C[C@@H](Nc1nnc(N2CCN(CCO)CC2)c2cc(=O)n(C3(C)CC3)cc12)c1cccc(C(F)F)c1F [Example 194, (R)-4-((1-(3-(difluoromethyl)-2-fluorophenyl)ethyl)amino)-1-(4-(2-hydroxyethyl)piperazin-1-yl)-6-(1-methylcyclopropyl) pyrido[3,4-d]pyridazin-7(6H)-one] | – | – | 3.9 nM | 44.9 nM |
| C[C@@H](Nc1nnc(N2CCN(C)C[C@@H]2C)c2cc(=O)n(C3(C)CC3)cc12)c1cccc(C(F)F)c1F [Example 195, 4-(((R)-1-(3-(difluoromethyl)-2-fluorophenyl)ethyl)amino)-1-((S)-2,4-dimethylpiperazin-1-yl)-6-(1-methylcyclopropyl) pyrido[3,4-d]pyridazin-7(6H)-one] | – | – | 3.7 nM | 25.6 nM |
| C[C@@H](Nc1nnc(N2CCN(CC3CC3)CC2)c2cc(=O)n(C3(C)CC3)cc12)c1cccc(C(F)F)c1F [Example 219, (R)-1-(4-(cyclopropylmethyl)piperazin-1-yl)-4-((1-(3-(difluoromethyl)-2-fluorophenyl)ethyl)amino)-6-(1-methylcyclopropyl) pyrido[3,4-d]pyridazin-7(6H)-one] | 2.8 h | 11.7 mL/min/kg | 4.7 nM | 25 nM |
| C[C@@H](Nc1nnc(N2CCN(C3CCC3)CC2)c2cc(=O)n(C3(C)CC3)cc12)c1cccc(C(F)F)c1F [Example 220, (R)-1-(4-cyclobutylpiperazin-1-yl)-4-((1-(3-(difluoromethyl)-2-fluorophenyl)ethyl)amino)-6-(1-methylcyclopropyl) pyrido[3,4-d]pyridazin-7(6H)-one] | 1.34 h | 19.9 mL/min/kg | 4 nM | 56.7 nM |
| C[C@@H](Nc1nnc(N2CCN(C3CCCC3)CC2)c2cc(=O)n(C3(C)CC3)cc12)c1cccc(C(F)F)c1F [Example 221, (R)-1-(4-cyclopentylpiperazin-1-yl)-4-((1-(3-(difluoromethyl)-2-fluorophenyl)ethyl)amino)-6-(1-methylcyclopropyl) pyrido[3,4-d]pyridazin-7(6H)-one] | 1.12 h | 22.2 mL/min/kg | 5 nM | 53.6 nM |
| CCN1CCN(c2nnc(N[C@H](C)c3cccc(C(F)(F)CO)c3)c3cn(C4(C)CC4)c(=O)cc23)CC1 [Example 227, (R)-4-((1-(3-(1,1-difluoro-2-hydroxyethyl)phenyl)ethyl)amino)-1-(4-ethylpiperazin-1-yl)-6-(1-methylcyclopropyl) pyrido[3,4-d]pyridazin-7(6H)-one] | – | – | 3.8 nM | 48.2 nM |
